# Test results taken from patent US20110257107A1, “Compounds for Delivering Amino Acids or Peptides with Antioxidant Activity into Mitochondria” (University of Rochester, priority 2006, published 2011).
# “Also recorded” adds a separate entry of the source. Like-named read-outs stand apart in the source and are kept apart here.
# Experiments:
# [1] = test system: Rat heart mitochondria; conditions: pretreatment 5 mM for 30 minutes, 5 μM rotenone and 100 μM t-BuOOH
# Method: Mitochondrial membrane potential was measured by safranine. Safranine is a positively charged dye that accumulates in mitochondria on establishment of an electrical potential across the mitochondrial inner membrane. However, its fluorescence is quenched by its accumulation in mitochondria in response to mitochondrial membrane potential. Rat heart mitochondria (0.2 mg protein/200 μl) were transferred to a well containing 0.3 ml of 150 mM KCl, 5 mM HEPES, 15, μM safranine, 5 mM succinate buffer, 5 μM rotenone and 100 μM t-BuOOH. The mitochondria were placed in a multiplate reader.
# Fluorescence measurements were made with excitation and emission wavelengths of 485 and 585 nm, respectively.
# [2] = test system: spinal cord neurons; assay: H202-induced apoptosis (condensed and fragmented nuclei) in cultured spinal cord neurons; type: cell-based
# Method: Central to the therapeutic intervention of spinal cord injury is the belief that spinal cord neurons undergo apoptosis and possibly necrosis under oxidative stress. […] In contrast, control neurons show predominantly diffuse nuclear staining. […] This percentage increased to ˜58% for 500 μM H2O2. […] In contrast, immunoreactivity to cytochrome C oxidase (COX), a marker in the inner mitochondrial membrane remained independent of the mitochondrial insults by H202. The differential staining between cytochrome C and COX affords a secondary method to assess whether a given neuron has undergone mitochondrial permeability transition (MPT).
# [3] = test system: brain striatal neurons; assay: NMDA-induced depolarization of mitochondrial membrane (TMRE) in striatal neurons; type: cell-based; conditions: pretreatment 50 μm for 30 minutes; NMDA (100 μM)
# Method: The effects of mitochondrial-targeted antioxidants upon onset of NMDA (100 μM) induced depolarization of mitochondrial membrane of brain striatal neurons are summarized in Table 1.
# Tetramethylrhodamine methyl ester (TMRE) was used as an indicator of mitochondrial membrane potential. […] Control neurons were not pretreated with any drug.
# [4] = test system: rat heart; assay: Post-ischemic recovery in Langendorff perfused rat heart; design: species or system Sprague-Dawley rat; conditions: 50 μM for 10 minutes prior to ischemia
# Method: Following an equilibration period of approximately 25 minutes, global normothermic ischemia was imposed for 25 minutes, followed by reperfusion for 30 minutes.
# [5] = test system: cultured neonatal rat ventricular myocytes; assay: H202-induced depolarization of mitochondrial membrane potential (TMRE) in cardiac myocytes; type: cell-based; conditions: 50 μM H202; for onset of H202-induced depolarization and loss of TMRE fluorescence: pretreatment 50 μM or 100 μM for 30 minutes
# Method: TMRE is a lipophilic cation that partitions selectively into the negatively charged mitochondria. Neonatal cultured myocytes (6 days in culture) were loaded with 10 nM TMRE for 60 minutes at 37° C. […] As a control, myocytes were not pretreated with any drug. TMRE was excited at 555 nm and fluorescence emission was detected at 590 nm. Fluorescence images were taken every 2 minutes. At the arrow (FIG. 3), myocytes were subjected to oxidative stress by adding 50 μM H202. Plots were normalized to baseline, and are shown as F/F0, where F is the emitted fluorescence at any given time and F0 is the baseline fluorescence before addition of H202. […] The traces were drawn from the mean values of 7-10 experiments.
# TMRE was used as an indicator of mitochondrial membrane potential. The myocytes were pretreated with 50 μM Mito GSH for 30 minutes and then washed to remove the antioxidant from the solution in which myocytes were suspended. In control, myocytes were not pretreated with any drug. TMRE was excited at 555 run and fluorescence emission was detected at 590 nm. Fluorescence images were taken every 2 minutes to avoid photobleaching and phototoxicity. Myocytes were subjected to oxidative stress by adding 50 μM H202.
smiles,measurement,setting,value
"CC(=O)N[C@@H](CS)C(=O)OCC[N+](C)(C)C [N-acetyl cysteine choline ester, N-acetyl-L-cysteine choline ester]",release of intramitochondrial safranine (depolarization of mitochondrial membrane potential),[1]; listed as NAC CE,minimize the depolarization of mitochondrial membrane potential
"C=CC(O)CC(=O)O (centres unmarked) [Compound 3-HP, 3-hydroxy-4-pentenoate]",percentage of cells showing condensed and fragmented nuclei,[2]; 3-HP depletion of mitochondrial glutathione prior to 250 μM H202 treatment,70%
"C[N+](C)(C)CCOC(=O)[C@@H](N)CS.[Cl-] [cysteine choline ester, [2-(2-Amino-3-mercapto-L-propionyloxy)ethyl]trimethylammonium chloride]",release of intramitochondrial safranine (depolarization of mitochondrial membrane potential),[1],diminished the release of intramitochondrial safaranine
same,release of intramitochondrial safranine (depolarization of mitochondrial membrane potential),[1]; listed as CYS CE,minimize the depolarization of mitochondrial membrane potential
"CC(=O)N[C@@H](CS)C(=O)O [N-acetyl cysteine, N-acetyl-L-cysteine]",Time of Onset of Depolarization,[3],10.5 ± 1.9 min
same,onset of ischemic contracture,[4],appeared to delay the onset of ischemic contracture
same,Overall recovery of left-ventricular developed pressure,"[4]; 25 minutes ischemia, 30 minutes reperfusion",15.7%
"C[N+](C)(C)CCOC(=O)CNC(=O)[C@H](CS)NC(=O)CC[C@H](N)C(=O)O.[Cl-] [Mito GSH, Glutathione choline ester chloride]",Time of Onset of Depolarization,[3],17.5 ± 2.1 min
same,time TMRE fluorescence persisted after H202 treatment,[5]; pretreatment 50 μM for 30 minutes,50 min
same,onset of H202-induced depolarization and loss of TMRE fluorescence,[5],delayed onset of H202-induced depolarization and loss of TMRE fluorescence; also recorded: significantly enhanced the time for onset of H202-induced depolarization; also recorded: delay the onset of H202-induced depolarization
same,time for onset of H202-induced depolarization,[5]; pretreatment 100 μM,53 ± 3.6 min
"OO [Compound H202, hydrogen peroxide]",neurons with condensed and fragmented nuclei,[2]; 250 μM H202,~42%
same,neurons with condensed and fragmented nuclei,[2]; 500 μM H2O2,~58%
"N[C@@H](CCC(=O)N[C@@H](CS)C(=O)NCC(=O)O)C(=O)O [Glutathione, L-γ-glutamyl-L-cysteinylglycine, reference compound]",time for onset of H202-induced depolarization,[5]; pretreatment 100 μM non-targeted glutathione,did not significantly increase the time for onset of H202-induced depolarization
"CC(=O)N[C@@H](CS)C(=O)OCC[N+](C)(C)C [Mito NAC, N,S-acetyl-L-cysteine choline ester]",Time of Onset of Depolarization,[3],20.5 ± 3.6 min
same,onset of H202-induced depolarization and loss of TMRE fluorescence,[5],delayed onset of H202-induced depolarization and loss of fluorescence
same,onset of H202-induced depolarization and loss of TMRE fluorescence,[5]; listed as mito NAC,delay the onset of H202-induced depolarization
